Measurements: publication PMC5218480 (PLoS ONE, 2017)

Tested on: MV-4-11 cells
Test: Gene expression microarray analysis (Affymetrix PrimeView) and GSEA
Assay type: cell-based, human
Set-up: RFU PODN (11730768_x_at) / Fold change /veh PODN (11730768_x_at) / RFU LINC00158 (11744669_a_at) / Fold change /veh LINC00158 (11744669_a_at) / RFU DUSP10 (11751237_a_at) / Fold change /veh DUSP10 (11751237_a_at) / RFU ID3 (11757404_x_at) / Fold change /veh ID3 (11757404_x_at) / RFU PLEKHG5 (11737974_s_at) / Fold change /veh PLEKHG5 (11737974_s_at) / RFU LRRC4B (11730491_at) / Fold change /veh LRRC4B (11730491_at) / RFU GIMAP4 (11747438_a_at) / Fold change /veh GIMAP4 (11747438_a_at) / RFU KRT8 (11758183_x_at) / Fold change /veh KRT8 (11758183_x_at) / RFU CNN1 (11734310_a_at) / Fold change /veh CNN1 (11734310_a_at) / RFU VPS37D (11726825_at) / Fold change /veh VPS37D (11726825_at) / RFU C10orf10 (11716522_x_at) / Fold change /veh C10orf10 (11716522_x_at) / RFU KIR2DL2 /// KIR2DL4 /// KIR2DL5A /// KIR2DL5B /// KIR2DS1 /// KIR2DS2 /// KIR2DS3 /// KIR2DS4 /// KIR3DL3 /// KIR3DL3 /// KIR3DS1 (11738374_at) / Fold change /veh KIR2DL2 /// KIR2DL4 /// KIR2DL5A /// KIR2DL5B /// KIR2DS1 /// KIR2DS2 /// KIR2DS3 /// KIR2DS4 /// KIR3DL3 /// KIR3DL3 /// KIR3DS1 (11738374_at) / RFU C1QL1 (11718748_at) / Fold change /veh C1QL1 (11718748_at) / RFU TMPRSS4 (11747572_a_at) / Fold change /veh TMPRSS4 (11747572_a_at) / RFU HAMP (11756126_x_at) / Fold change /veh HAMP (11756126_x_at) / RFU RNFT2 (11725882_a_at) / Fold change /veh RNFT2 (11725882_a_at) / RFU NR4A2 (11747474_a_at) / Fold change /veh NR4A2 (11747474_a_at) / RFU ABCC12 (11746883_a_at) / Fold change /veh ABCC12 (11746883_a_at) / RFU TMEM136 (11760407_x_at) / Fold change /veh TMEM136 (11760407_x_at) / RFU CLDN22 /// WWC2 (11732394_at) / Fold change /veh CLDN22 /// WWC2 (11732394_at) / RFU HLA-DPB1 (11760878_x_at) / Fold change /veh HLA-DPB1 (11760878_x_at) / RFU SPINT1 (11716480_a_at) / Fold change /veh SPINT1 (11716480_a_at) / RFU GAP43 (11754022_s_at) / Fold change /veh GAP43 (11754022_s_at) / RFU A4GNT (11735810_at) / Fold change /veh A4GNT (11735810_at) / RFU PRB3 (11715151_x_at) / Fold change /veh PRB3 (11715151_x_at) / RFU TUBB4B (11761932_at) / Fold change /veh TUBB4B (11761932_at) / RFU CAPN14 (11732068_a_at) / Fold change /veh CAPN14 (11732068_a_at) / RFU TMCC2 (11721928_a_at) / Fold change /veh TMCC2 (11721928_a_at) / RFU IRGQ (11745062_a_at) / Fold change /veh IRGQ (11745062_a_at) / RFU FAM174B (11720279_a_at) / Fold change /veh FAM174B (11720279_a_at) / RFU TMPRSS4 (11748680_a_at) / Fold change /veh TMPRSS4 (11748680_a_at) / RFU FAM212B (11763350_a_at) / Fold change /veh FAM212B (11763350_a_at) / RFU PLEKHG5 (11743358_a_at) / Fold change /veh PLEKHG5 (11743358_a_at) / RFU ZSCAN30 (11745921_a_at) / Fold change /veh ZSCAN30 (11745921_a_at) / RFU CMKLR1 (11741424_a_at) / Fold change /veh CMKLR1 (11741424_a_at) / RFU LOC101060620 /// MAPK8IP1 (11723275_at) / Fold change /veh LOC101060620 /// MAPK8IP1 (11723275_at) / RFU SPTSSB (11747773_x_at) / Fold change /veh SPTSSB (11747773_x_at) / RFU PRSS12 (11739890_at) / Fold change /veh PRSS12 (11739890_at) / RFU BIN1 (11741810_x_at) / Fold change /veh BIN1 (11741810_x_at) / RFU WNT11 (11732464_a_at) / Fold change /veh WNT11 (11732464_a_at) / RFU C10orf10 (11716521_a_at) / Fold change /veh C10orf10 (11716521_a_at) / RFU C5orf56 (11738089_at) / Fold change /veh C5orf56 (11738089_at) / RFU CYB561 (11721691_x_at) / Fold change /veh CYB561 (11721691_x_at) / RFU ANKRD19P (11752326_a_at) / Fold change /veh ANKRD19P (11752326_a_at) / RFU OR2T12 /// OR2T33 /// OR2T8 (11738714_s_at) / Fold change /veh OR2T12 /// OR2T33 /// OR2T8 (11738714_s_at) / RFU VCAN (11748164_a_at) / Fold change /veh VCAN (11748164_a_at) / RFU JSRP1 (11732532_at) / Fold change /veh JSRP1 (11732532_at) / RFU KRTAP10-11 (11738290_x_at) / Fold change /veh KRTAP10-11 (11738290_x_at) / RFU MYO3A (11730013_a_at) / Fold change /veh MYO3A (11730013_a_at) / RFU EBF3 (11725865_a_at) / Fold change /veh EBF3 (11725865_a_at) / RFU CAMK2N1 (11719241_x_at) / Fold change /veh CAMK2N1 (11719241_x_at) / RFU C5orf56 (11738088_a_at) / Fold change /veh C5orf56 (11738088_a_at) / RFU OLFML3 (11715873_a_at) / Fold change /veh OLFML3 (11715873_a_at) / RFU LOC100653217 /// NTM (11731650_a_at) / Fold change /veh LOC100653217 /// NTM (11731650_a_at) / RFU MAPK11 (11762145_a_at) / Fold change /veh MAPK11 (11762145_a_at) / RFU FIZ1 (11724087_x_at) / Fold change /veh FIZ1 (11724087_x_at) / RFU OASL (11726364_x_at) / Fold change /veh OASL (11726364_x_at) / RFU SOX15 (11748057_x_at) / Fold change /veh SOX15 (11748057_x_at) / RFU CD79A (11719716_a_at) / Fold change /veh CD79A (11719716_a_at) / RFU HIST1H1D (11736915_at) / Fold change /veh HIST1H1D (11736915_at) / RFU CASKIN2 (11723855_a_at) / Fold change /veh CASKIN2 (11723855_a_at) / RFU LOC730098 (11760151_x_at) / Fold change /veh LOC730098 (11760151_x_at) / RFU OR4N2 (11742367_at) / Fold change /veh OR4N2 (11742367_at) / RFU PRRT2 (11749266_a_at) / Fold change /veh PRRT2 (11749266_a_at) / RFU SNX32 (11753110_a_at) / Fold change /veh SNX32 (11753110_a_at) / RFU CDHR5 (11726645_a_at) / Fold change /veh CDHR5 (11726645_a_at) / RFU RCAN1 (11760418_a_at) / Fold change /veh RCAN1 (11760418_a_at) / RFU FAM167A (11723789_a_at) / Fold change /veh FAM167A (11723789_a_at) / RFU FAM26E (11764081_at) / Fold change /veh FAM26E (11764081_at) / RFU ISYNA1 (11749810_s_at) / Fold change /veh ISYNA1 (11749810_s_at) / RFU ACY1 (11761880_at) / Fold change /veh ACY1 (11761880_at) / RFU 11764098_at / Fold change /veh 11764098_at / RFU SAMD14 (11745864_x_at) / Fold change /veh SAMD14 (11745864_x_at) / RFU NPB (11741838_a_at) / Fold change /veh NPB (11741838_a_at) / RFU TMPRSS6 (11731388_a_at) / Fold change /veh TMPRSS6 (11731388_a_at) / RFU KRTAP10-2 (11738614_at) / Fold change /veh KRTAP10-2 (11738614_at) / RFU ARHGAP8 /// PRR5-ARHGAP8 (11727945_x_at) / Fold change /veh ARHGAP8 /// PRR5-ARHGAP8 (11727945_x_at) / RFU KRTAP5-7 /// NADSYN1 (11734609_at) / Fold change /veh KRTAP5-7 /// NADSYN1 (11734609_at) / RFU RASL12 (11751679_a_at) / Fold change /veh RASL12 (11751679_a_at) / RFU CDKN2B (11736163_a_at) / Fold change /veh CDKN2B (11736163_a_at) / RFU PRF1 (11729649_at) / Fold change /veh PRF1 (11729649_at) / RFU, ZNF638 /// ZNF638-IT1 / Fold change vs veh, ZNF638 /// ZNF638-IT1 / RFU, PANK3 / Fold change vs veh, PANK3 / RFU, SH3YL1 / Fold change vs veh, SH3YL1 / RFU, ZEB2 / Fold change vs veh, ZEB2 / RFU, NRIP1 / Fold change vs veh, NRIP1 / RFU, PTTG1IP / Fold change vs veh, PTTG1IP / RFU, CAPN2 / Fold change vs veh, CAPN2 / RFU, MED14 / Fold change vs veh, MED14 / RFU, SNORA58 / Fold change vs veh, SNORA58 / RFU, C1orf63 / Fold change vs veh, C1orf63 / RFU, LRRFIP1 / Fold change vs veh, LRRFIP1 / RFU, NDUFAF7 / Fold change vs veh, NDUFAF7 / RFU, SLC12A2 / Fold change vs veh, SLC12A2 / RFU, IBTK / Fold change vs veh, IBTK / RFU, ESF1 / Fold change vs veh, ESF1 / Fold change vs veh, TMEM50B / RFU, TAOK1 / Fold change vs veh, TAOK1 / RFU, ACBD3 / Fold change vs veh, ACBD3 / RFU, TMA16 / Fold change vs veh, TMA16 / RFU, RWDD3 / Fold change vs veh, RWDD3 / RFU, BCAT1 / Fold change vs veh, BCAT1 / RFU, EDEM3 / Fold change vs veh, EDEM3 / RFU, TMEM33 / Fold change vs veh, TMEM33 / RFU, WDR75 / Fold change vs veh, WDR75 / RFU, AHCTF1 / Fold change vs veh, AHCTF1 / RFU, TFRC / Fold change vs veh, TFRC / RFU, ZDHHC17 / Fold change vs veh, ZDHHC17 / RFU, NOM1 / Fold change vs veh, NOM1 / RFU, ARL8B / Fold change vs veh, ARL8B / RFU, ZBTB11 / Fold change vs veh, ZBTB11 / RFU, TAMM41 / Fold change vs veh, TAMM41 / RFU, KIAA1704 /// LOC100996395 / Fold change vs veh, KIAA1704 /// LOC100996395 / RFU, ING1 / Fold change vs veh, ING1 / RFU, TRMT61B / Fold change vs veh, TRMT61B / RFU, FUBP3 / Fold change vs veh, FUBP3 / RFU, TP53 / Fold change vs veh, TP53 / RFU, TNKS2 / Fold change vs veh, TNKS2 / RFU, ZFP14 / Fold change vs veh, ZFP14 / RFU, ACTR2 / Fold change vs veh, ACTR2 / RFU, PPP3R1 / Fold change vs veh, PPP3R1 / RFU, PIK3R1 / Fold change vs veh, PIK3R1 / RFU, HNRNPA1 / Fold change vs veh, HNRNPA1 / RFU, RNF170 / Fold change vs veh, RNF170 / RFU, ZNF28 / Fold change vs veh, ZNF28 / RFU, RNGTT / Fold change vs veh, RNGTT / RFU, OGT / Fold change vs veh, OGT / RFU, BRD1 / Fold change vs veh, BRD1 / RFU, MARS / Fold change vs veh, MARS / RFU, ZNF655 / Fold change vs veh, ZNF655 / RFU, FAHD1 / Fold change vs veh, FAHD1 / RFU, BDP1 / Fold change vs veh, BDP1 / RFU, LRRCC1 / Fold change vs veh, LRRCC1 / RFU, ARID1A / Fold change vs veh, ARID1A / RFU, ZNF146 / Fold change vs veh, ZNF146 / RFU, ZNF330 / Fold change vs veh, ZNF330 / RFU, GPN3 / Fold change vs veh, GPN3 / RFU, C9orf123 / Fold change vs veh, C9orf123 / RFU, N4BP2L2 / Fold change vs veh, N4BP2L2 / RFU, ARFIP1 / Fold change vs veh, ARFIP1 / RFU, FAM179B / Fold change vs veh, FAM179B / RFU, BCL10 / Fold change vs veh, BCL10 / RFU, UHRF1BP1L / Fold change vs veh, UHRF1BP1L / RFU, BET1 / Fold change vs veh, BET1 / RFU, CNOT2 / Fold change vs veh, CNOT2 / RFU, ZNF268 / Fold change vs veh, ZNF268 / Fold change vs veh, ZNF507 / RFU, DGCR2 / Fold change vs veh, DGCR2 / RFU, WDSUB1 / Fold change vs veh, WDSUB1 / Fold change vs veh, HSP90B1 /// MIR3652 / RFU, ADSS / Fold change vs veh, ADSS / RFU, GK / Fold change vs veh, GK / RFU, ZNF148 / Fold change vs veh, ZNF148 / RFU, TAF9 / Fold change vs veh, TAF9 / RFU, SLC1A5 / Fold change vs veh, SLC1A5 / RFU, SLMO2 / Fold change vs veh, SLMO2 / RFU, ABCC4 / Fold change vs veh, ABCC4 / RFU, LOC101060439 /// RAP1B / Fold change vs veh, LOC101060439 /// RAP1B / RFU, RFX7 / Fold change vs veh, RFX7 / RFU, GTPBP10 / Fold change vs veh, GTPBP10 / RFU, CNEP1R1 / Fold change vs veh, CNEP1R1 / RFU, BIVM-ERCC5 /// ERCC5 / Fold change vs veh, BIVM-ERCC5 /// ERCC5 / RFU, ILF3 / Fold change vs veh, ILF3 / RFU 11762660_at / Fold change /veh 11762660_at / RFU VCAN (11757783_s_at) / Fold change /veh VCAN (11757783_s_at) / RFU DDX43 (11728927_at) / Fold change /veh DDX43 (11728927_at) / RFU KRT8 (11758188_x_at) / Fold change /veh KRT8 (11758188_x_at) / RFU NKD1 (11759106_at) / Fold change /veh NKD1 (11759106_at) / RFU SRD5A1 (11742802_a_at) / Fold change /veh SRD5A1 (11742802_a_at) / RFU TPSAB1 /// TPSB2 (11721975_s_at) / Fold change /veh TPSAB1 /// TPSB2 (11721975_s_at) / RFU GSTM3 (11746129_a_at) / Fold change /veh GSTM3 (11746129_a_at) / RFU IL23R (11737362_x_at) / Fold change /veh IL23R (11737362_x_at) / RFU TMEM51 (11727254_a_at) / Fold change /veh TMEM51 (11727254_a_at) / RFU PIWIL2 (11732686_x_at) / Fold change /veh PIWIL2 (11732686_x_at) / RFU ORM1 (11744905_x_at) / Fold change /veh ORM1 (11744905_x_at) / RFU CCDC152 (11743942_at) / Fold change /veh CCDC152 (11743942_at) / RFU ECM1 (11717891_a_at) / Fold change /veh ECM1 (11717891_a_at) / RFU IL23R (11748794_a_at) / Fold change /veh IL23R (11748794_a_at) / RFU TNFAIP8L3 (11732012_x_at) / Fold change /veh TNFAIP8L3 (11732012_x_at) / RFU MBOAT4 (11741988_at) / Fold change /veh MBOAT4 (11741988_at) / RFU 11764193_at / Fold change /veh 11764193_at / RFU TMEM53 (11763286_at) / Fold change /veh TMEM53 (11763286_at) / RFU MAGEB2 (11727129_at) / Fold change /veh MAGEB2 (11727129_at) / RFU TMEM200A (11744735_a_at) / Fold change /veh TMEM200A (11744735_a_at) / RFU CCDC152 (11751479_a_at) / Fold change /veh CCDC152 (11751479_a_at) / RFU FAM211A (11726209_a_at) / Fold change /veh FAM211A (11726209_a_at) / RFU RGS16 (11746705_a_at) / Fold change /veh RGS16 (11746705_a_at) / RFU VCAN (11755009_s_at) / Fold change /veh VCAN (11755009_s_at) / RFU RHOB (11743442_s_at) / Fold change /veh RHOB (11743442_s_at) / RFU RGS16 (11720943_a_at) / Fold change /veh RGS16 (11720943_a_at) / RFU RGS16 (11720944_at) / Fold change /veh RGS16 (11720944_at) / RFU, VPS4B / Fold change vs veh, VPS4B / RFU, CREB1 / Fold change vs veh, CREB1 / RFU, DNAJC13 / Fold change vs veh, DNAJC13 / RFU, GNAQ / Fold change vs veh, GNAQ / RFU, CDK5R1 / Fold change vs veh, CDK5R1 / RFU, ZRANB3 / Fold change vs veh, ZRANB3 / RFU, CUL4A / Fold change vs veh, CUL4A / RFU, CCNY / Fold change vs veh, CCNY / RFU, UFL1 / Fold change vs veh, UFL1 / RFU, COG3 / Fold change vs veh, COG3 / RFU, DIAPH2 / Fold change vs veh, DIAPH2 / RFU, SKA2 / Fold change vs veh, SKA2 / RFU, AFF3 / Fold change vs veh, AFF3 / RFU, LMF1 / Fold change vs veh, LMF1 / RFU, IPO11 / Fold change vs veh, IPO11 / RFU, DFFB / Fold change vs veh, DFFB / RFU, FOXP1 / Fold change vs veh, FOXP1 / RFU, CARD8 / Fold change vs veh, CARD8 / RFU, STRN3 / Fold change vs veh, STRN3 / RFU, ADK / Fold change vs veh, ADK / RFU, RASSF2 / Fold change vs veh, RASSF2 / RFU, WIPF1 / Fold change vs veh, WIPF1 / RFU, LARP1B / Fold change vs veh, LARP1B / RFU, RASA1 / Fold change vs veh, RASA1 / RFU, RB1 / Fold change vs veh, RB1 / RFU, PPFIA1 / Fold change vs veh, PPFIA1 / RFU, MAT2A / Fold change vs veh, MAT2A / RFU, CCT5 / Fold change vs veh, CCT5 / RFU, WDR92 / Fold change vs veh, WDR92 / RFU, CUX1 / Fold change vs veh, CUX1 / RFU, TTC7A / Fold change vs veh, TTC7A / RFU, TMEM135 / Fold change vs veh, TMEM135 / RFU, DEPTOR / Fold change vs veh, DEPTOR / RFU, CPM / Fold change vs veh, CPM / RFU, DNAJB6 / Fold change vs veh, DNAJB6 / RFU, CACNA2D3 / Fold change vs veh, CACNA2D3 / RFU, DTX4 / Fold change vs veh, DTX4 / RFU, TFCP2 / Fold change vs veh, TFCP2 / RFU, GMCL1 /// GMCL1P1 / Fold change vs veh, GMCL1 /// GMCL1P1 / RFU, AEBP2 / Fold change vs veh, AEBP2 / RFU, SNHG1 /// SNORD22 /// SNORD25 /// SNORD26 /// SNORD27 /// SNORD28 /// SNORD29 /// SNORD31 / Fold change vs veh, SNHG1 /// SNORD22 /// SNORD25 /// SNORD26 /// SNORD27 /// SNORD28 /// SNORD29 /// SNORD31 / Fold change (Aza/veh), C12orf56 (ProbeSet 11735607_a_at) / Fold change (ACY-1035/veh), C12orf56 (ProbeSet 11735607_a_at) / Fold change (Aza/veh), FGFR1OP (ProbeSet 11751329_s_at) / Fold change (ACY-1035/veh), FGFR1OP (ProbeSet 11751329_s_at) / Fold change (Aza/veh), VPS36 (ProbeSet 11739960_a_at) / Fold change (ACY-1035/veh), VPS36 (ProbeSet 11739960_a_at) / RFU SYPL1 (11715823_x_at) / Fold change /veh SYPL1 (11715823_x_at) / RFU IGFBP7 (11715501_s_at) / Fold change /veh IGFBP7 (11715501_s_at) / RFU REEP3 (11722064_at) / Fold change /veh REEP3 (11722064_at) / RFU IGLL1 (11728026_x_at) / Fold change /veh IGLL1 (11728026_x_at): dose or concentration left out as unconfirmed
Settings: MV-4-11 cells, 48 hours

Question: How did the “Fold change /veh KRTAP10-2 (11738614_at)” value turn out when Nc1ncn([C@@H]2O[C@H](CO)[C@@H](O)[C@H]2O)c(=O)n1 [azacitidine] was run?
Answer: 0.93
